Experimental data published in patent publication US4581847A, “Tryptophan overproducer mutants of cereal crops” (Molecular Genetics Research and Development, priority 1984, dated 1986).
Where two headings read alike, the source gives them in different places.

Legend:
[1] = test system: maize line C66 callus; experiment: Callus growth inhibition study, resistant line C66; assay type: cell-based; conditions: C66, 5MT at 100 μM or below
Protocol: (§1) The tryptophan analog, 5-methyltryptophan (5MT), was used for selection of tryptophan overproducer mutants as discussion in Section 5 supra. The effect of various concentrations of 5MT on callus growth on solid media was determined. Quantities of tissue averaging 50 mg in size were transferred to nutrient agar maintenance media containing 5MT concentrations ranging from 1.0 to 200 μM. Four tissue pieces were placed on each plate with four plates per analog concentration. After 28 days growth, the tissue was weighed again.
For each transfer all tissue showing growth and somatic embryo forming ability were placed on fresh media. At the third transfer, the concentration of 5MT was increased to 100 μM. During the course of the selection process, the total number of lines decreased as the analog mediated growth inhibition became more intense. Two lines however, increased in size and by the end of the fourth month of selection were identified as resistant to 5MT. These cell lines were identified as maize line C28 and C66. […] Throughout this selection process, the selected cell lines maintained a friable appearance that was similar to the appearance of the original parent cell line.

[2] = test system: maize callus tissue (unselected parent, A188 x B73); experiment: Callus culture growth inhibition by 5MT, unselected parent tissue; assay type: cell-based; conditions: for IC50: Zea mays, 672 h
Protocol: Friable, embryogenic maize callus cultures were initiated from hybrid immature embryos produced by pollination of inbred line A188 plants (University of Minnesota, Crop Improvement Association) with pollen of Inbred line B73 plants (Iowa State University). Ears were harvested when embryos had reached a length of 1.5 to 2.0 mm. The whole ear was surface sterilized in […] commercial bleach (2.63% w/v sodium hypochlorite) for 20 minutes at room temperature. The ears were then washed with sterile distilled, deionized water. Immature embryos were aseptically isolated and placed on nutrient agar initiation/maintenance media with the root/shoot axis exposed to the media. Initiation/maintenance media consisted of N6 basal media (Chih-ching in Proceedings of Symposium on Plant Tissue Culture, May 25-30, 1978, Science Press, Peking, pp. 43-50) with 2% (w/v) sucrose, 1.5 mg per liter 2,4-dichlorophenoxyacetic acid (2,4-D), 6 mM proline, and 0.9% (w/v) agar.
The immature embryos were incubated at 26° C. in the dark. Cell proliferations from the scutellum of the immature embryos were evaluated for friable consistency and the presence of well defined somatic embryos. Tissue with this morphology was transferred to fresh media 10 to 14 days after the initial plating of the immature embryos. The tissue was then subcultured on a routine basis every 12 to 16 days. Sixty to eighty milligram quantities of tissue were removed from pieces of tissue that had reached a size of approximately one gram and transferred to fresh media. Subculturing always involved careful visual monitoring to be sure that only tissue of the correct morphology was maintained. The presence of the somatic embryos ensured that the cultures would give rise to plants under the proper conditions.
as §1

[3] = test system: maize line C28 callus; experiment: Four week callus growth inhibition study, resistant line C28; assay type: cell-based
Protocol: as §1
For each transfer all tissue showing growth and somatic embryo forming ability were placed on fresh media. At the third transfer, the concentration of 5MT was increased to 100 μM. During the course of the selection process, the total number of lines decreased as the analog mediated growth inhibition became more intense. Two lines however, increased in size and by the end of the fourth month of selection were identified as resistant to 5MT. These cell lines were identified as maize line C28 and C66. […]
Four week growth inhibition studies were carried out with 5MT as described supra. The level of 5MT giving 50% growth inhibition was determined to be between 300 and 400 μM for the C28 line compared to 3 to 10 μM for unselected parent tissue. […]

[4] = test system: anthranilate synthase (crude callus extracts: AB108 control, K17 line of C28); experiment: Anthranilate synthase assay with 5MT as enzyme inhibitor; assay type: biochemical, maize; conditions: 30° C., 30 minutes, 0.25 mM chorismate, 20 mM L-glutamine; FIG. 4
Protocol: Assays were conducted to determine whether 5MT resistance was conferred by an alteration in the gene that codes for the anthranilate synthase enzyme. Crude enzyme extract of AB108 control callus and the selected K17 line of C28 callus were prepared as described below. The K17 line of C28 was derived from a regenerated C28 plant crossed with a control plant and then self-pollinated. Immature embryos were then cultured and a callus line developed as described previously.
Plant callus tissue was ground using a mortar and pestle and extracted with 0.2 M Tris-HCl, pH 8.2, 60% glycerol, 0.2 mM dithiothreitol (DTT), 0.2 mM ethylenediaminetetraacetic acid (EDTA), 1.0 mM magnesium sulfate (MgSO4), 20 mM sodium chloride (NaCl) and 1.0 mM L-tryptophan. One ml extraction buffer was used per 2 g callus. The extract was centrifuged at 10,000×g for 25 minutes at 4° C. The supernatant was applied to a 3 cm×15 cm Bio Gel-P6 column (Bio-Rad, Richmond, Calif.) equilibrated with 0.1 M Tris-HCl, pH 7.6, 10% glycerol, 0.1 mM DTT and 0.1 mM EDTA and eluted with the same buffer. 0.75 ml fractions were collected and fractions containing protein were pooled. […]
Assays were conducted in 1 ml volumes as follows. […] The fluorescence due to the production of anthranilate was measured in the 3.5 ml extractant using a Kratos FS950 fluorimeter (Kratos Analytical Instruments, Ramsey, N.J.).

Structure (SMILES) | Growth inhibition by the analog compared to parental cell line AB1 (FIG. 2) [1] | IC50 ([2]; callus on solid maintenance media, 28 days growth, 1.0 to 200 μM 5MT, read-out: 5MT concentration giving half maximal inhibition of growth rate) | IC50 ([2]; unselected parent tissue, four week growth inhibition, read-out: Level of 5MT giving 50% growth inhibition) | Cell death ([2]; analog concentrations of 100 and 200 μM, 28 days) | Growth inhibition by the analog compared to parental cell line AB1 (FIG. 2) ([3]; C28, 5MT at 100 μM or below) | IC50 ([3]; Zea mays, 672 h, C28 line, four week growth inhibition, read-out: Level of 5MT giving 50% growth inhibition) | Fold higher 5MT level needed for 50% inhibition of C28 AS compared with control AS [4] | Reversal of growth inhibitory effects of 5MT ([2]; tryptophan added to 5MT-inhibited callus)
Cc1ccc2[nH]cc(C[C@H](N)C(=O)O)c2c1 [5MT, 5-methyltryptophan] | no longer seriously inhibited | 3 to 10 µM | 3 to 10 µM | Cell death was observed | no longer seriously inhibited | 300 to 400 µM | 10 fold | –
N[C@@H](Cc1c[nH]c2ccccc12)C(=O)O [Tryptophan] | – | – | – | – | – | – | – | reverse all the growth inhibitory effects of 5MT
